Laboratory results taken from patent US10980805B2, “Aza-pyridone compounds and uses thereof” (Janssen BioPharma, Inc., priority 2013, dated 2021).

How the values were obtained:
[1] = system: Influenza strain A549_A/WSN/33 (H1N1); assay: Influenza antiviral assay (neuraminidase fluorescence readout); format: cell-based, Influenza virus; conditions: Influenza A virus, read-out: % Inhibition (EC50 class, Table 2)
[2] = target: Full length EN PA (influenza PA endonuclease) (Influenza A virus, UniProt P15659); assay: EN PA FRET inhibition assay; format: biochemical; conditions: FRET probe, mean of a minimum of two independent experiments, read-out: Potency (IC50 class, Table 3)
[3] = system: influenza strains B/Malaysia/2506/2004 or B/Victoria/504/2000; assay: Influenza B assay (fluorescence-based influenza neuraminidase assay); format: cell-based; conditions: Influenza B virus, A549, 20 h; read-out: Potency (EC50)
[4] = system: Influenza strain A/Port Chalmers/1/73 (H3N2); assay: Combination studies (checker-board, MacSynergy II); format: cell-based, Influenza virus; conditions: MDCK cells, three days
[5] = Compound 2 = 21-A (PA Inhibitor)
[6] = Compound 2 = Amantadine (M2 Channel-Inhibitor)
[7] = Compound 2 = Favipiravir (T-705) (Polymerase Inhibitor)
[8] = Compound 2 = Oseltamivir (Neuraminidase-Inhibitor)
[9] = Compound 2 = Peramivir (Neuraminidase-Inhibitor)
[10] = Compound 2 = Ribavirin (Polymerase Inhibitor)
[11] = Compound 2 = Rimantadine (M2 Channel-Inhibitor)
[12] = Compound 2 = Zanamivir (Neuraminidase-Inhibitor)
[13] = Compound 2 = drawing 296 (Polymerase Inhibitor)

Compound | EC50 [1] [µM] | IC50 [2] [µM] | EC50 [3] [µM] | other results
CC(C)N1C[C@H](C(c2ccccc2)c2ccccc2)n2ncc(=O)c(O)c2C1=O [Compound 6-A] | < 20 | < 0.25 | < 20 | Observed Result [4, 5]: additive (volumes in the −25-25 range indicate additive behavior); Synergy Volume [4, 5]: 4.1 μM^2%; Observed Result [4, 6]: additive (volumes in the −25-25 range indicate additive behavior); Synergy Volume [4, 6]: 22.5 μM^2%; Synergy Volume ([4]; Compound 2 = Consensus Interferon alpha (Immuno-modulator)): 70 μM^2%; Synergy Volume [4, 7]: 185 μM^2%; Synergy Volume ([4]; Compound 2 = Laninamivir (Neuraminidase-Inhibitor)): 276 μM^2%; Synergy Volume [4, 8]: 233 μM^2%; Synergy Volume [4, 9]: 308 μM^2%; Synergy Volume [4, 10]: 109 μM^2%; Observed Result [4, 11]: additive (volumes in the −25-25 range indicate additive behavior); Synergy Volume [4, 11]: 4.6 μM^2%; Synergy Volume [4, 12]: 217 μM^2%; Observed Result [4, 13]: strongly synergistic; Synergy Volume [4, 13]: 440 μM^2%
CN1C[C@H](C2c3ccccc3CCc3ccccc32)n2ncc(=O)c(O)c2C1=O [Compound 7-A] | < 20 | < 0.25 | < 20 | –
CCN1C[C@H](C(c2cccc(F)c2)c2cccc(F)c2)n2ncc(=O)c(O)c2C1=O [Compound 21-A] | < 20 | < 0.25 | < 20 | –
CCN1C[C@H](C(c2cccc(Cl)c2)c2cccc(Cl)c2)n2ncc(=O)c(O)c2C1=O [Compound 39-A] | < 20 | < 0.25 | < 20 | –
CC(C)N1C[C@H](C(c2cccc(F)c2)c2cccc(F)c2)n2ncc(=O)c(O)c2C1=O [Compound 41-A] | < 20 | < 0.25 | < 20 | –
CC(C)N1C[C@H](C(c2cccc(Cl)c2)c2cccc(Cl)c2)n2ncc(=O)c(O)c2C1=O [Compound 68-A] | < 20 | < 0.25 | < 20 | –
COCCN1C[C@H](C(c2cccc(F)c2)c2cccc(F)c2)n2ncc(=O)c(O)c2C1=O [Compound 76-A] | < 20 | < 0.25 | < 20 | –
CC(C)C(=O)Oc1c2n(ncc1=O)[C@@H](C1c3cccc(F)c3CCc3c(F)cccc31)CN(C(C)C)C2=O [Compound 114-A] | < 20 | < 0.25 | – | Synergy Volume [4, 6]: 86 μM^2%; Synergy Volume [4, 7]: 132 μM^2%; Synergy Volume [4, 8]: 205 μM^2%; Synergy Volume [4, 9]: 100 μM^2%; Synergy Volume [4, 10]: 55 μM^2%; Observed Result [4, 11]: synergistic (volumes in the 25-100 range indicate synergistic behavior); Synergy Volume [4, 11]: 45 μM^2%; Synergy Volume [4, 12]: 127 μM^2%
CN1C[C@@H]([C@@H](c2ccccc2)c2ccccn2)n2ncc(=O)c(O)c2C1=O [Compound 131] | < 20 | < 0.25 | – | –
CC(C)N1C[C@H]([C@@H](c2ccccc2)c2ccccn2)n2ncc(=O)c(O)c2C1=O [Compound 132] | < 20 | < 0.25 | – | –
CC(C)OC(=O)Oc1c2n(ncc1=O)[C@@H](C(c1ccccc1)c1ccccc1)CN(C(C)C)C2=O [Compound 133] | < 20 | ≥ 1 | – | –
CC(C)COC(=O)Oc1c2n(ncc1=O)[C@@H](C(c1ccccc1)c1ccccc1)CN(C(C)C)C2=O [Compound 134] | < 20 | ≥ 1 | – | –
CC(C)N1CC(C(c2ccccc2)c2cccnc2)n2ncc(=O)c(O)c2C1=O (stereo not shown) [Compound 135] | < 20 | < 0.25 | – | –
CC(C)N1C[C@@H]([C@@H](c2ccccc2)c2ccccn2)n2ncc(=O)c(O)c2C1=O [Compound 138] | < 20 | < 0.25 | – | –
